# Assay results published in patent publication US4450269A, “Mono-5-substituted-3-chloro-4H-1,2,6-thiadiazin-4-one antifungal agents” (FMC Corporation, priority 1980, dated 1984).
# Where two headings read alike, the source gives them in different places.
# How the values were obtained:
# Alternaria solani [1] = assay: Mycelial growth test; assay type: cell-based; settings: Alternaria solani, 72 h, AS, read-out: Percent Fungus Growth Inhibition
# Fusarium solani [2] = assay: Mycelial growth test; assay type: cell-based; settings: Fusarium solani, 72 h
# Sclerotinia fructicola = assay: Mycelial growth test; assay type: cell-based; settings: Sclerotinia, 72 h, SF, read-out: Percent Fungus Growth Inhibition
# Description: | SF = Sclerotinia fructicola
# Pyricularia oryzae [3] = assay: microbe, parasite or virus in culture; assay type: cell-based; settings: Pyricularia oryzae, 72 h; for inhibition at 5 ppm: read-out: Percent Fungus Growth Inhibition, PO, 5 ppm, 72 hours; for inhibition at 10 ppm: read-out: Percent Fungus Growth Inhibition, PO, 10 ppm, 72 hours
# Pythium ultimum = assay: Mycelial growth test; assay type: cell-based; settings: Globisporangium ultimum, 72 h, PU, read-out: Percent Fungus Growth Inhibition
# Rhizoctonia solani = assay: Mycelial growth test; assay type: cell-based; settings: Rhizoctonia solani, 72 h, RS, read-out: Percent Fungus Growth Inhibition
# Description: | RS = Rhizoctonia solani
# Phytophthora infestans [4] = assay: whole plant or invertebrate; assay type: in vivo; settings: Phytophthora infestans, in Solanum lycopersicum, foliar, read-out: Percent Disease Control, foliar, tomato late blight, 150 ppm, protective
# Pyricularia oryzae [5] = assay: whole plant or invertebrate; assay type: in vivo; settings: Pyricularia oryzae, foliar, 24 h, read-out: Percent Disease Control, curative, rice blast, 150 ppm, 24 hours after inoculation
# Fusarium solani [6] = assay: Soil treatment, bean root rot; assay type: in vivo; settings: Fusarium solani, soil, 336 h; 150 ppm suspension, 3.8 mg active per pot; read-out: Percent Disease Control, seed/soil, bean root rot
# Protocol: In a similar manner the soil around a bean seedling was drenched with a sufficient amount of 150 ppm suspension of test chemical to provide 3.8 mg active per pot. Twenty-four hours later the soil was inoculated with a suspension of minced mycelium of Fusarium solani. The inoculated plants were then placed in a greenhouse, evaluated after fourteen days, and percent control of root rot damage calculated. The results, reported in Table III, indicate only a few of the compounds tested are effective in treating Bean Root Rot but that these provide a high degree of control.
# Helminthosporium oryzae = assay: Mycelial growth test; settings: Bipolaris oryzae, 72 h; for inhibition at 5 ppm: read-out: Percent Fungus Growth Inhibition, HO, 5 ppm, 72 hours; for inhibition at 10 ppm: read-out: Percent Fungus Growth Inhibition, HO, 10 ppm, 72 hours
# Uromyces phaseoli [7] = assay: whole plant or invertebrate; settings: foliar, read-out: Percent Disease Control, foliar, bean rust
# Uromyces phaseoli [8] = assay: whole plant or invertebrate; settings: foliar, 24 h, read-out: Percent Disease Control, curative, bean rust
# Erysiphe polygoni [9] = assay: whole plant or invertebrate; settings: foliar, 24 h, read-out: Percent Disease Control, curative, bean powdery mildew
# Cercospora beticola = assay: whole plant or invertebrate; settings: in Beta vulgaris, foliar, 24 h, read-out: Percent Disease Control, curative, sugar beet leaf spot
# Alternaria solani [10] = assay: Spore germination test; assay type: cell-based; settings: AS, 48 hours
# Protocol: (§1) The test chemical was dissolved or suspended in acetone in an amount such that 0.8 ml of the resulting suspension or solution, mixed with 40 ml water agar produced a water agar solution containing 40, 10, 2.5 and 1 ppm of test chemical. The resulting agar solution, at 50° C., was then divided equally between two sterile petri dishes, each having four separated quadrants, and allowed to solidify. […] quadrants of each dish were flooded with 0.1 ml of a spore suspension in sterile water. Spores of two pathogens, Erysiphe polygoni and Uromyes phaseoli, from infected plant leaves, were brushed on the remaining two quadrants. The tests were then incubated 48 hours, at 24° C.
# (§2) Readings were then taken and the percentage of germinated spores calculated. From this percentage, a spore germination rating was assigned as follows: […]
# Botrytis cinerea = assay: Spore germination test; assay type: cell-based; settings: BC, 48 hours
# Protocol: as §1, §2
# Erysiphe polygoni [11] = assay: Spore germination test; assay type: cell-based; settings: EP, 48 hours
# Protocol: as §1, §2
# Uromyces phaseoli [12] = assay: Spore germination test; assay type: cell-based; settings: UP, 48 hours
# Protocol: as §1, §2
# Pyricularia oryzae [13] = assay type: cell-based; settings: PO, 48 hours
# Cladosporium cucumerinum [14] = assay: Spore germination test; assay type: cell-based; settings: CC, 48 hours
# Protocol: CC = Cladosporium cucumerinum
# as §1, §2
# Phytophthora infestans [15] = assay type: cell-based; settings: PI, 48 hours
# Cladosporium cucumerinum [16] = assay: Mycelial growth test; assay type: cell-based; settings: Cladosporium cucumerinum, CC, read-out: Percent Fungus Growth Inhibition
# Description: |CC = Cladosporium cucumerinum
# [17] = PS, 72 hours, read-out: Percent Fungus Growth Inhibition
structure (smiles),measurement,setting,value
"O=c1c(Cl)nsnc1Cl [Compound 1, 3,5-dichloro-4H--1,2,6-thiadiazin-4-one]",inhibition at 2.5 ppm,Alternaria solani [1]; 2.5 ppm,100%
same,inhibition at 5 ppm,Alternaria solani [1],100%
same,inhibition at 10 ppm,Alternaria solani [1],100%
same,inhibition at 2.5 ppm,"Fusarium solani [2]; PS, 2.5 ppm, 72 hours, read-out: Percent Fungus Growth Inhibition",85%
same,inhibition at 5 ppm,Fusarium solani [2]; [17],100%
same,inhibition at 10 ppm,Fusarium solani [2]; [17],100%
same,inhibition at 2.5 ppm,Sclerotinia fructicola; 2.5 ppm,100%
same,inhibition at 5 ppm,Sclerotinia fructicola,100%
same,inhibition at 10 ppm,Sclerotinia fructicola,100%
same,inhibition at 2.5 ppm,"Pyricularia oryzae [3]; read-out: Percent Fungus Growth Inhibition, PO, 2.5 ppm, 72 hours",27%
same,inhibition at 5 ppm,Pyricularia oryzae [3],42%
same,inhibition at 10 ppm,Pyricularia oryzae [3],82%
same,inhibition at 2.5 ppm,Pythium ultimum; 2.5 ppm,0%
same,inhibition at 5 ppm,Pythium ultimum,0%
same,inhibition at 10 ppm,Pythium ultimum,100%
same,inhibition at 2.5 ppm,Rhizoctonia solani; 2.5 ppm,100%
same,inhibition at 5 ppm,Rhizoctonia solani,64%
same,inhibition at 10 ppm,Rhizoctonia solani,100%
same,pest or weed control at 150 ppm,Phytophthora infestans [4],0%
same,pest or weed control at 150 ppm,Pyricularia oryzae [5],0%
same,"pest or weed control at 150 ppm, 3.8 mg/pot",Fusarium solani [6],0%
same,inhibition at 2.5 ppm,"Helminthosporium oryzae; read-out: Percent Fungus Growth Inhibition, HO, 2.5 ppm, 72 hours",100%
same,inhibition at 5 ppm,Helminthosporium oryzae,100%
same,inhibition at 10 ppm,Helminthosporium oryzae,100%
same,pest or weed control at 150 ppm,Uromyces phaseoli [7],0%
same,pest or weed control at 150 ppm,Uromyces phaseoli [8],0%
same,pest or weed control at 150 ppm,Erysiphe polygoni [9],0%
same,pest or weed control at 150 ppm,Cercospora beticola,0%
"C[S+]([O-])c1ccc(Oc2nsnc(Cl)c2=O)cc1 (stereo not drawn) [Compound 40, 3-chloro-5-[(4-methylsulfinyl)phenoxy]-4H-1,2,6,-thiadiazin-4-one]",Spore Germination Rating,Alternaria solani [10]; 1.0 ppm,4 (80-100)
same,Spore Germination Rating,Alternaria solani [10]; 2.5 ppm,2 (40-60)
same,Spore Germination Rating,Alternaria solani [10]; 10 ppm,1 (10-40)
same,Spore Germination Rating,Alternaria solani [10]; 40 ppm,0 (0-10)
same,Spore Germination Rating,Botrytis cinerea; 1.0 ppm,4 (80-100)
same,Spore Germination Rating,Botrytis cinerea; 2.5 ppm,4 (80-100)
same,Spore Germination Rating,Botrytis cinerea; 10 ppm,4 (80-100)
same,Spore Germination Rating,Botrytis cinerea; 40 ppm,3 (60-80)
same,Spore Germination Rating,Erysiphe polygoni [11]; 1.0 ppm,4 (80-100)
same,Spore Germination Rating,Erysiphe polygoni [11]; 2.5 ppm,4 (80-100)
same,Spore Germination Rating,Erysiphe polygoni [11]; 10 ppm,4 (80-100)
same,Spore Germination Rating,Erysiphe polygoni [11]; 40 ppm,1 (10-40)
same,Spore Germination Rating,Uromyces phaseoli [12]; 1.0 ppm,3 (60-80)
same,Spore Germination Rating,Uromyces phaseoli [12]; 2.5 ppm,2 (40-60)
same,Spore Germination Rating,Uromyces phaseoli [12]; 10 ppm,1 (10-40)
same,Spore Germination Rating,Uromyces phaseoli [12]; 40 ppm,1 (10-40)
same,Spore Germination Rating,Pyricularia oryzae [13]; 1.0 ppm,4 (80-100)
same,Spore Germination Rating,Pyricularia oryzae [13]; 2.5 ppm,3 (60-80)
same,Spore Germination Rating,Pyricularia oryzae [13]; 10 ppm,4 (80-100)
same,Spore Germination Rating,Pyricularia oryzae [13]; 40 ppm,1 (10-40)
same,Spore Germination Rating,Cladosporium cucumerinum [14]; 1.0 ppm,4 (80-100)
same,Spore Germination Rating,Cladosporium cucumerinum [14]; 2.5 ppm,0 (0-10)
same,Spore Germination Rating,Cladosporium cucumerinum [14]; 10 ppm,0 (0-10)
same,Spore Germination Rating,Cladosporium cucumerinum [14]; 40 ppm,0 (0-10)
same,Spore Germination Rating,Phytophthora infestans [15]; 1.0 ppm,4 (80-100)
same,Spore Germination Rating,Phytophthora infestans [15]; 2.5 ppm,3 (60-80)
same,Spore Germination Rating,Phytophthora infestans [15]; 10 ppm,2 (40-60)
same,Spore Germination Rating,Phytophthora infestans [15]; 40 ppm,0 (0-10)
same,inhibition at 5 ppm,Alternaria solani [1],54%
same,inhibition at 10 ppm,Alternaria solani [1],75%
same,inhibition at 20 ppm,Alternaria solani [1]; 20 ppm,92%
same,inhibition at 40 ppm,Alternaria solani [1]; 40 ppm,100%
same,inhibition at 5 ppm,Fusarium solani [2]; [17],5%
same,inhibition at 10 ppm,Fusarium solani [2]; [17],16%
same,inhibition at 20 ppm,"Fusarium solani [2]; PS, 20 ppm, 72 hours, read-out: Percent Fungus Growth Inhibition",26%
same,inhibition at 40 ppm,"Fusarium solani [2]; read-out: Percent Fungus Growth Inhibition, PS, 40 ppm, 72 hours",53%
same,inhibition at 5 ppm,Sclerotinia fructicola,4%
same,inhibition at 10 ppm,Sclerotinia fructicola,59%
same,inhibition at 20 ppm,Sclerotinia fructicola; 20 ppm,89%
same,inhibition at 40 ppm,Sclerotinia fructicola; 40 ppm,100%
same,inhibition at 5 ppm,Pyricularia oryzae [3],33%
same,inhibition at 10 ppm,Pyricularia oryzae [3],47%
same,inhibition at 20 ppm,"Pyricularia oryzae [3]; read-out: Percent Fungus Growth Inhibition, PO, 20 ppm, 72 hours",42%
same,inhibition at 40 ppm,"Pyricularia oryzae [3]; read-out: Percent Fungus Growth Inhibition, PO, 40 ppm, 72 hours",89%
same,inhibition at 5 ppm,Pythium ultimum,0%
same,inhibition at 10 ppm,Pythium ultimum,100%
same,inhibition at 20 ppm,Pythium ultimum; 20 ppm,100%
same,inhibition at 40 ppm,Pythium ultimum; 40 ppm,100%
same,inhibition at 5 ppm,Rhizoctonia solani,0%
same,inhibition at 10 ppm,Rhizoctonia solani,0%
same,inhibition at 20 ppm,Rhizoctonia solani; 20 ppm,24%
same,inhibition at 40 ppm,Rhizoctonia solani; 40 ppm,53%
same,inhibition at 5 ppm,"Cladosporium cucumerinum [16]; 72 h, 5 ppm",0%
same,inhibition at 10 ppm,"Cladosporium cucumerinum [16]; 72 h, 10 ppm",48%
same,inhibition at 40 ppm,"Cladosporium cucumerinum [16]; 72 h, 40 ppm",48%
same,inhibition at 20 ppm,"Cladosporium cucumerinum [16]; CC20, 72 h, 20 ppm",32%
same,pest or weed control at 150 ppm,Phytophthora infestans [4],75%
same,pest or weed control at 150 ppm,Pyricularia oryzae [5],0%
same,inhibition at 5 ppm,Helminthosporium oryzae,40%
same,inhibition at 10 ppm,Helminthosporium oryzae,60%
same,inhibition at 20 ppm,"Helminthosporium oryzae; read-out: Percent Fungus Growth Inhibition, HO, 20 ppm, 72 hours",87%
same,inhibition at 40 ppm,"Helminthosporium oryzae; read-out: Percent Fungus Growth Inhibition, HO, 40 ppm, 72 hours",100%
same,pest or weed control at 150 ppm,Uromyces phaseoli [7],98%
same,pest or weed control at 150 ppm,Uromyces phaseoli [8],0%
same,pest or weed control at 150 ppm,Erysiphe polygoni [9],0%
